# From ChEMBL document CHEMBL3297661, “1-Substituted-5-[(3,5-dinitrobenzyl)sulfanyl]-1H-tetrazoles and their isosteric analogs: A new class of selective antitubercular agents active against drug-susceptible and multidrug-resistant mycobacteria” (Eur J Med Chem, 2014)
# Test system: Mycobacterium avium
# Assay: Antimycobacterial activity against Mycobacterium avium CNCTC My 330/88 after 21 days by micromethod
# Format: functional
# Conditions: CNCTC My 330/88, 504 h
row,SMILES,MIC [µM]
1,O=[N+]([O-])c1cc(CSc2nnnn2-c2ccc(Cl)c(Cl)c2)cc([N+](=O)[O-])c1,16

# Test system: Staphylococcus epidermidis
# Assay: Antibacterial activity against Staphylococcus epidermidis H 6966/08 after 48 hrs by broth microdilution method
# Format: functional
# Conditions: H 6966/08, 48 h
row,SMILES,IC95 [µM]
1,O=[N+]([O-])c1cc(CSc2nnnn2-c2ccc(Cl)c(Cl)c2)cc([N+](=O)[O-])c1,> 125

# Test system: Mycobacterium kansasii
# Assay: Antimycobacterial activity against Mycobacterium kansasii 6509/96 after 14 days by micromethod
# Format: functional
# Conditions: 6509/96, 336 h
row,SMILES,MIC [µM]
1,O=[N+]([O-])c1cc(CSc2nnnn2-c2ccc(Cl)c(Cl)c2)cc([N+](=O)[O-])c1,2

# Test system: Lichtheimia corymbifera
# Assay: Antifungal activity against Absidia corymbifera 272 after 48 hrs by broth microdilution method
# Format: functional, organism-based
# Conditions: Lichtheimia corymbifera, 272, 48 h
row,SMILES,IC50 [µM]
1,O=[N+]([O-])c1cc(CSc2nnnn2-c2ccc(Cl)c(Cl)c2)cc([N+](=O)[O-])c1,> 125

# Test system: Mycobacterium tuberculosis
# Assay: Antimycobacterial activity against Mycobacterium tuberculosis CNCTC My 331/88 after 21 days by micromethod
# Format: functional
# Conditions: CNCTC My 331/88, 504 h
row,SMILES,MIC [µM]
1,O=[N+]([O-])c1cc(CSc2nnnn2-c2ccc(Cl)c(Cl)c2)cc([N+](=O)[O-])c1,1

# Test system: not listed separately
# Assay: Cytotoxicity against MDCK2 cells assessed as cell viability at 30 uM after 48 hrs by MTT assay
# Format: cell-based, Canis lupus familiaris, MDCK-II
# Conditions: dog, read-out: Activity
row,SMILES,"viability at 48 h, 30 µM [%]"
1,O=[N+]([O-])c1cc(CSc2nnnn2-c2ccc(Cl)c(Cl)c2)cc([N+](=O)[O-])c1,53

# Test system: Staphylococcus epidermidis
# Assay: Antibacterial activity against Staphylococcus epidermidis H 6966/08 after 24 hrs by broth microdilution method
# Format: functional
# Conditions: H 6966/08, 24 h
row,SMILES,IC95 [µM]
1,O=[N+]([O-])c1cc(CSc2nnnn2-c2ccc(Cl)c(Cl)c2)cc([N+](=O)[O-])c1,> 125

# Test system: Staphylococcus aureus
# Assay: Antibacterial activity against methicillin-resistant Staphylococcus aureus H 5996/08 after 24 hrs by broth microdilution method
# Format: functional
# Conditions: H 5996/08, 24 h
row,SMILES,IC95 [µM]
1,O=[N+]([O-])c1cc(CSc2nnnn2-c2ccc(Cl)c(Cl)c2)cc([N+](=O)[O-])c1,> 125

# Test system: Trichosporon asahii
# Assay: Antifungal activity against Trichosporon asahii 1188 after 48 hrs by broth microdilution method
# Format: functional
# Conditions: Trichosporon asahii, 1188, 48 h
row,SMILES,IC80 [µM]
1,O=[N+]([O-])c1cc(CSc2nnnn2-c2ccc(Cl)c(Cl)c2)cc([N+](=O)[O-])c1,> 125

# Test system: Nakaseomyces glabratus
# Assay: Antifungal activity against Candida glabrata 20/I after 24 hrs by broth microdilution method
# Format: functional
# Conditions: not given
row,SMILES,IC80 [µM]
1,O=[N+]([O-])c1cc(CSc2nnnn2-c2ccc(Cl)c(Cl)c2)cc([N+](=O)[O-])c1,> 125

# Test system: Staphylococcus aureus
# Assay: Antibacterial activity against Staphylococcus aureus ATCC 6538 after 24 hrs by broth microdilution method
# Format: functional
# Conditions: ATCC 6538, 24 h
row,SMILES,IC95 [µM]
1,O=[N+]([O-])c1cc(CSc2nnnn2-c2ccc(Cl)c(Cl)c2)cc([N+](=O)[O-])c1,> 125

# Test system: Mycobacterium kansasii
# Assay: Antimycobacterial activity against Mycobacterium kansasii CNCTC My 235/80 after 7 days by micromethod
# Format: functional
# Conditions: CNCTC My 235/80, 168 h
row,SMILES,MIC [µM]
1,O=[N+]([O-])c1cc(CSc2nnnn2-c2ccc(Cl)c(Cl)c2)cc([N+](=O)[O-])c1,1

# Test system: Nakaseomyces glabratus
# Assay: Antifungal activity against Candida glabrata 20/I after 48 hrs by broth microdilution method
# Format: functional
# Conditions: not given
row,SMILES,IC80 [µM]
1,O=[N+]([O-])c1cc(CSc2nnnn2-c2ccc(Cl)c(Cl)c2)cc([N+](=O)[O-])c1,> 125

# Test system: Pseudomonas aeruginosa
# Assay: Antibacterial activity against Pseudomonas aeruginosa ATCC 9027 after 48 hrs by broth microdilution method
# Format: functional
# Conditions: ATCC 9027, 48 h
row,SMILES,IC95 [µM]
1,O=[N+]([O-])c1cc(CSc2nnnn2-c2ccc(Cl)c(Cl)c2)cc([N+](=O)[O-])c1,> 125

# Test system: Escherichia coli
# Assay: Antibacterial activity against Escherichia coli ATCC 8739 after 48 hrs by broth microdilution method
# Format: functional
# Conditions: ATCC 8739, ATCC 8739, 48 h
row,SMILES,IC95 [µM]
1,O=[N+]([O-])c1cc(CSc2nnnn2-c2ccc(Cl)c(Cl)c2)cc([N+](=O)[O-])c1,> 125

# Test system: Aspergillus fumigatus
# Assay: Antifungal activity against Aspergillus fumigatus 231 after 48 hrs by broth microdilution method
# Format: functional, organism-based
# Conditions: Aspergillus fumigatus, 231, 48 h
row,SMILES,IC50 [µM]
1,O=[N+]([O-])c1cc(CSc2nnnn2-c2ccc(Cl)c(Cl)c2)cc([N+](=O)[O-])c1,> 125

# Test system: Staphylococcus aureus
# Assay: Antibacterial activity against methicillin-resistant Staphylococcus aureus H 5996/08 after 48 hrs by broth microdilution method
# Format: functional
# Conditions: H 5996/08, 48 h
row,SMILES,IC95 [µM]
1,O=[N+]([O-])c1cc(CSc2nnnn2-c2ccc(Cl)c(Cl)c2)cc([N+](=O)[O-])c1,> 125

# Test system: not listed separately
# Assay: Cytotoxicity against human HuH7 cells assessed as cell viability at 30 uM after 48 hrs by MTT assay
# Format: cell-based, Huh-7
# Conditions: read-out: Activity
row,SMILES,"viability at 48 h, 30 µM [%]"
1,O=[N+]([O-])c1cc(CSc2nnnn2-c2ccc(Cl)c(Cl)c2)cc([N+](=O)[O-])c1,90

# Test system: not listed separately
# Assay: Cytotoxicity against human HeLa cells assessed as cell viability at 30 uM after 48 hrs by MTT assay
# Format: cell-based
# Conditions: read-out: Activity
row,SMILES,"viability at 48 h, 30 µM [%]"
1,O=[N+]([O-])c1cc(CSc2nnnn2-c2ccc(Cl)c(Cl)c2)cc([N+](=O)[O-])c1,67

# Test system: Candida albicans
# Assay: Antifungal activity against Candida albicans ATCC 44859 after 48 hrs by broth microdilution method
# Format: functional
# Conditions: ATCC 44859, 48 h
row,SMILES,IC80 [µM]
1,O=[N+]([O-])c1cc(CSc2nnnn2-c2ccc(Cl)c(Cl)c2)cc([N+](=O)[O-])c1,> 125

# Test system: Klebsiella pneumoniae
# Assay: Antibacterial activity against extended spectrum beta-lactamase producing Klebsiella pneumoniae J 14368/08 after 48 hrs by broth microdilution method
# Format: functional
# Conditions: J 14368/08, 48 h
row,SMILES,IC95 [µM]
1,O=[N+]([O-])c1cc(CSc2nnnn2-c2ccc(Cl)c(Cl)c2)cc([N+](=O)[O-])c1,> 125

# Test system: Mycobacterium avium
# Assay: Antimycobacterial activity against Mycobacterium avium CNCTC My 330/88 after 14 days by micromethod
# Format: functional
# Conditions: CNCTC My 330/88, 336 h
row,SMILES,MIC [µM]
1,O=[N+]([O-])c1cc(CSc2nnnn2-c2ccc(Cl)c(Cl)c2)cc([N+](=O)[O-])c1,8

# Test system: Candida albicans
# Assay: Antifungal activity against Candida albicans ATCC 44859 after 24 hrs by broth microdilution method
# Format: functional
# Conditions: ATCC 44859, 24 h
row,SMILES,IC80 [µM]
1,O=[N+]([O-])c1cc(CSc2nnnn2-c2ccc(Cl)c(Cl)c2)cc([N+](=O)[O-])c1,> 125

# Test system: Mycobacterium tuberculosis
# Assay: Antimycobacterial activity against Mycobacterium tuberculosis CNCTC My 331/88 after 14 days by micromethod
# Format: functional
# Conditions: CNCTC My 331/88, 336 h
row,SMILES,MIC [µM]
1,O=[N+]([O-])c1cc(CSc2nnnn2-c2ccc(Cl)c(Cl)c2)cc([N+](=O)[O-])c1,1

# Test system: Pichia kudriavzevii
# Assay: Antifungal activity against Candida krusei E28 after 48 hrs by broth microdilution method
# Format: functional
# Conditions: E28, 48 h
row,SMILES,IC80 [µM]
1,O=[N+]([O-])c1cc(CSc2nnnn2-c2ccc(Cl)c(Cl)c2)cc([N+](=O)[O-])c1,> 125
